Test results: patent US8410068B2, “Compounds for the treatment or alleviation of edema, and methods for their use” (Index Pharmaceuticals AB, priority 2007, dated 2013)

Tested on: OVA induced airway inflammation
Test: Ovalbumin (OVA) induced allergic airway inflammation, BAL fluid cell counts
Assay type: in vivo, Balb/c mice
Procedure: Mice were sensitized intraperitoneally with 200 μL OVA/aluminium hydroxide gel (1:3) on day 0 and 12 (see FIG. 6). OVA (chicken egg albumin grade V, Sigma, St. Louis, Mo.) was dissolved in saline and mixed with aluminium hydroxide gel to a concentration of 50 μg/mL by rotation at 4° C. for 3 h. On days 23, 26, 30 and 33 (see FIG. 6), mice were challenged in the lungs by inhalation of aerosolized OVA for 30 minutes using a Batelle exposure chamber. Aerosols were generated by a compressed-air nebulizer (Collison 6-jet) at airflow 7.4 L/min using a nebulizer concentration of 10 mg/mL OVA dissolved in PBS (Sigma, St Louis, Mo., USA). The control group with non-sensitized animals received no other treatment than aerosolized OVA at days 23, 26, 30 and 33.
In this OVA model (FIG. 6), a total of 4 oligonucleotides were tested, IDX9025, IDX9038, IDX9053 (Table 1, SEQ ID NO 2-4) and IDX0150 (Table 3, SEQ ID NO 11). The oligonucleotides were synthesized by biomers.net GmbH, Ulm, Germany and stored frozen at −20° C. The oligonucleotides were diluted with PBS to the working concentration (1,247 μg/μL) and kept at −20° C. until the first day of instillation, thereafter they were placed at 4° C.
In a first experiment, both prophylactic and therapeutic protocols were tested (see FIG. 6). The drug treatment consisted of intranasal instillations of IDX0150 (1,247 μg/μL, provided by InDex Pharmaceuticals AB, Stockholm, Sweden) on days 16 and 21 (prophylactic protocol), on days 30 and 33 (therapeutic protocol A) or on days 30 and 34 (therapeutic protocol B). The instillations in the therapeutic protocols (A & B) on days 30 and 33 were given 4 h after aerosol challenge. The second instillation in protocol B on day 34 was given 24 h after the last aerosol challenge. The drug was administered in 40 μL PBS giving a dose of ˜50 μg/mice (49.88 μg/mice). The two sensitized sham-treatment groups were instilled with PBS, the same total volume as for the treatment groups, according to either the prophylactic protocol (days 16 and 21) or to the therapeutic protocol A (days 30 and 33).
In a second experiment, since administration of IDX0150 in the first experiment using prophylactic protocol (FIG. 6) gave a significant reduction of airway inflammation (FIG. 7), three other substances were tested with the same protocol. The drug treatment consisted of intranasal instillations of IDX9025, IDX9038 and IDX9053 (Table 1) (1,247 μg/μL, provided by InDex Pharmaceuticals AB) on days 16 and 21 (see FIG. 6, prophylactic protocol). All substances were administered in 40 μL PBS giving a dose of ˜50 μg/mice (49.88 μg/mice). The two sensitized sham-treatment groups were instilled with PBS, the same total volume as for the treatment groups, according to the prophylactic protocol (days 16 and 21).
Mice were killed by cervical dislocation 42 h after the last OVA aerosol challenge. The trachea was cannulated with polyethylene tubing (Becton Dickinson, Sparks, Md., USA) and bronchoalveolar lavage (BAL) was performed using 4×1 mL aliquots of ice-cold Hank's balanced salt solution (HBSS) (Sigma, St Louis, Mo., USA). The BAL fluid was centrifuged (400 g, 10 min, 4° C.) and the BAL fluid cells were resuspended in 0.4 mL PBS. The total number of leukocytes counted using tryphan blue exclusion in a Barker chamber. Duplicate Cytospin (Cytospin 3, Shandon, Runcorn, UK) preparations of BAL fluid cells were stained with May Grünewald Giemsa for differential counts, using standard morphological criteria.
Statistical comparisons were performed using One-way analysis of variance (ANOVA) using Dunnett's post hoc correction to compare with sensitized PBS treated control mice (GraphPad Prism 3). Data are shown as mean±standard deviation. P<0.05 was considered significant.

## G*G*A*ACAGTTCGTCCAT*G*G*C (phosphorothioate linkages, as printed in the source, key not given here) [IDX0150, oligonucleotide used as control; * = phosphorothioate modification]
Prophylactic protocol, 50 μg/animal intranasal on day 16 and 21, P<0.001
  migration of eosinophils into the BAL fluid: significantly reduce
Prophylactic protocol, 50 μg/animal intranasal on day 16 and 21, P<0.05
  migration of leukocytes into the BAL fluid: significantly reduce
Therapeutic protocols, 50 μg intranasal, days 30 and 33 (A) or 30 and 34 (B)
  effect on BAL fluid cells, therapeutic arm: no statistically proven effects
